Results from patent publication US10513723B2 (AMGEN INC., priority 2014, dated 2019).

Columns and labels:
[1] = test system: Cell line H (CHO cells expressing recombinant antibody); experiment: Small scale mock perfusion, % high mannose (HILIC glycan map) of the expressed recombinant glycoprotein; format: cell-based, Chinese hamster
Experimental: Cell lines H was used in this study. Cells were maintained in 3 L Erlenmeyer shake flasks (Corning Life Sciences, Lowell, Mass.) with 1 L working volume and cultivated under standard humidified condition at 36° C., 5% CO2, and shaken at 70 rpm in an automatic CO2 incubator (Thermo Fisher Scientific, Waltham, Mass.). Cells were sub-cultured in a selective growth media containing a 500 nM concentration of methotrexate (MTX) every four days, and subsequently transferred, inoculated and cultured in a growth media for four days before being seeded in a 24 wells plate for the experiments described below. […] Different N-glycan species of antibodies were analyzed by hydrophilic-interaction liquid chromatography (HILIC). The purified antibodies were digested by N-glycosidase F (New England BioLabs, Ipswich, Mass.) at 37° C. for 2 hours to release the glycans. The released glycans were labeled with 2-aminobenzoic acid and cleaned up using GlycoClean S cartridges (Prozyme, […], Calif.). Purified glycans were then desalted and reconstituted in water for assay. HILIC chromatography was performed with a 100 mm×2.1 mm i.d BEH Glycan column using UPLC (Waters Corporation, Milford, Mass.) and the eluted glycans were detected, identified, and qualified by a fluorescence detector based on different elution times of different glycans.

[2] = test system: Cell line H (CHO cells expressing recombinant antibody); settings: spermine tetrahydrochloride 0, 7, 17, 35 and 100 μM; day 5 samples; FIG. 6
Experimental: Samples were collected on day 5 of the mock perfusion assay. The 35 μM sample served as a control.
An arginine-free formulation of a perfusion media was used for small scale mock perfusion Experiment #3 (arginine concentration studies) according to the experimental design. In small scale mock perfusion Experiment #4 all arginase inhibitors were added to a perfusion media.
Briefly, the CHO cells were seeded in the plate at the targeted density ranging from 10-20×10^6 cells/mL with 3 mL working volume for each well. The cells were cultivated at 36° C., 5% CO2, 85% relative humidity and shaken at 225 rpm in a 50-mm orbital diameter Kuhner incubator (Kuhner AG, Basel, Switzerland) for 3 or 4 days. Every 24 hours, the cells were centrifuged at 200×g for 5 minutes (Beckman Coulter, Brea, Calif.) to collect the spent media and each well was then replenished with 3 mL of fresh media. The collected spent media were analyzed for titer, key metabolites and % high mannose (% HMN) (when necessary). Cells were then harvested and cell counts and viability were measured.
Five different concentrations of spermine were tested in this study. […] The perfusion medium containing 35 μM spermine acted as a control.

[3] = test system: Cell line H (CHO cells expressing recombinant antibody); settings: reduction/depletion of spermine in perfusion medium (0-100 μM)
[4] = test system: Cell line I (expresses an IgG2 antibody); experiment: Fed-batch 2 L bioreactor culture, % high mannose by peptide mapping glycan profiling; format: cell-based; settings: single supplement of 0.1 g/L L-ornithine monohydrochloride on day 0 vs ornithine-free control; samples days 6, 8 and 12; FIG. 8
Experimental: Glycan profiling was performed by peptide mapping. […] Specifically, about 50-70 μg of each antibody was denatured and reduced with 7.0 M guanidine.HCl, 6 mM dithiothreitol (DTT) in 0.2 M tris buffer (pH 7.5) at 37° C. for 30 minutes. Each denatured/reduced sample was alkylated with 14 mM iodoacetic acid at 25° C. for 25 minutes, followed by quenching the reaction by adding 8 mM DTT. […] The buffer-exchanged sample was incubated at 37° C. with 3.5 μg trypsin for 60 minutes. Digestion was quenched by adding 2.2 μL of 10% acetic acid. About 12-17 μg of digested antibody was injected for analysis.
The digested antibody was analyzed using an Agilent 1260 HPLC system directly connected to a Thermo Scientific LTQ-Orbitrap Elite mass spectrometer (Thermo Fisher Scientific Inc., Rockford, Ill.). Proteolytic peptides were separated on a Waters BEH 300 C18 column (Waters Corporation, Milford, Mass.) 2.1×150 mm, 1.7μ particle at 40° C. with a flow rate of 0.2 mL/min. Mobile phase A was 0.02% TFA in water and mobile phase B was 0.018% TFA in acetonitrile. Peptides were eluted with a gradient of 0.5-40% B in 90 minutes, followed by column washing and re-equilibration. Mass spectrometer was set up for a full MS scan in the orbitrap with 120,000 resolution followed by five data-dependent CID MS/MS scans in the linear trap with dynamic exclusion.

[5] = first series: four arginase inhibitors at 1, 10 and 20 μM vs inhibitor-free control, FIG. 10
[6] = second series: BEC 0, 10 μM, 0.5 mM, DL-α 0, 10 μM, 1.0 mM, 2.0 mM in perfusion medium, FIG. 11

Cl.N=C(N)NCCC[C@H](N)C(=O)O [arginine, arginine monohydrochloride]
% HM (high mannose glycoform content) ([1]; arginine 3.686, 1.843 (control), 1.38, 0.92 and 0.46 g/L in perfusion medium, FIG. 9): as the arginine concentration is increased the % HM increased

Cl.Cl.Cl.Cl.NCCCNCCCCNCCCN [spermine, spermine tetrahydrochloride]
% HMN (high mannose glycoform content) ([1]; spermine tetrahydrochloride 0, 7, 17, 35 (control) and 100 μM in perfusion medium, day 5 samples, FIG. 5): as the spermine concentration was reduced, the % HMN decreased | amount of ornithine (extracellular) [2]: the amount of ornithine decreased with a decrease in spermine concentration | Titer [3]: not affected

S-(2-boronoethyl)-1-cysteine [BEC]
% HM (high mannose glycoform content) [1, 5]: most effective in decreasing % HM | % HM (high mannose glycoform content) [1, 6]: % HM was decreased as both inhibitor concentrations increased

Cl.NCCC[C@](N)(C(=O)O)C(F)F (racemic) [DL-α, DL-α, Diflouromethylornithine Hydrochloride]
% HM (high mannose glycoform content) [1, 5]: most effective in decreasing % HM | % HM (high mannose glycoform content) [1, 6]: % HM was decreased as both inhibitor concentrations increased

Cl.NCCC[C@H](N)C(=O)O [ornithine, L-ornithine monohydrochloride]
% HMN (high mannose glycoform content) [4]: as the ornithine concentration is increased the % HMN increased
